Reference: publication PMC12372887, “Mechanism and cellular actions of the potent AMPK inhibitor BAY-3827” (Science Advances, 2025)
pEC50: −log10 of the molar value.

Key:
[1] = test system: pThr172-AMPKα in U2OS cells; experiment: HTRF assay of Thr172-AMPKα phosphorylation in U2OS cells; type: cell-based, human; conditions: for pEC50: Homo sapiens, U2OS; for AMPK phosphorylation (pThr172): dose response
Protocol: Human osteosarcoma U2OS WT cells were obtained from John Rouse (MRC Protein Phosphorylation and Ubiquitylation Unit, University of Dundee) and were cultured in DMEM high glucose + GlutaMAX Supplement, pyruvate (Thermo Fisher Scientific, catalog no. 31966-021) containing penicillin G (100 U/ml), streptomycin (100 μg/ml), and 10% (v/v) FBS seeding with 50,000 cells per well in a 50-μl volume in culture 96-well cell culture plates (Corning Incorporated costar, #3599). The next day, the media were changed to 50 μl of serum-free media, and 50 μl of serum-free media containing BAY-3827 or BAY-974 was dispensed and left to incubate at 37°C for 30 min. […] HTRF assays using either phospho-Ser^79-ACC1 kit (Revvity, #64ACCPEG) or phospho-Thr^172-AMPK kit (Revvity, #64AMPKPEG) were performed in triplicate in HTRF 96-well low volume white plates (Revvity, #66PL96001) following manufacturer’s instructions. Sealed plates incubated overnight in darkness conditions were scanned at room temperature in Multimode Plate Reader EnVision (PerkinElmer) machine following HTRF setup recommendations for EnVision (Revvity), equipped with a top mirror LANCE/DELFIA single mirror (#412), a UV2 (TRF) 320 excitation filter (#111), emission filter APC 665 (#205), and second emission filter Europium 615 (#203), with a 2000-μs cycle and 60-μs delay, with the number of flashes set to 100 as well as for the 2nd detector. Results were viewed in EnVision Manager software (version 1.13.3009.1401) where 665/615 ratios were calculated, and data were normalized to control condition as %. All assay ratios between control lysate signal/nonspecific signal were greater than 2 as expected of a successful assay following the manufacturer’s instructions. Data were visualized in GraphPad Prism v10.

EPH-B3 = EPH-B3 (Homo sapiens, UniProt P54753); experiment: Kinase panel (140 human kinases); type: biochemical
How it was run: (§1)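 Single-point profiling at 0.1 μM; BAY-3827 also at 1 μM. ^33P-ATP radiometric filter-binding format, duplicates. ATP 5/20/50 μM (≤ Km for each enzyme). Readout: % residual activity, mean ± SD.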

CK2 = CK2 (Homo sapiens, UniProt P68400); experiment: Kinase panel (140 human kinases); type: biochemical
How it was run: as §1

PRK2 = PRK2 (Homo sapiens, UniProt Q16513); experiment: Kinase panel (140 human kinases); type: biochemical
How it was run: as §1

TIE2 = TIE2 (Homo sapiens, UniProt Q02763); experiment: Kinase panel (140 human kinases); type: biochemical
How it was run: as §1

CK1γ2 = CK1γ2 (Homo sapiens, UniProt P78368); experiment: Kinase panel (140 human kinases); type: biochemical
How it was run: as §1

IR = IR (Homo sapiens, UniProt P06213); experiment: Kinase panel (140 human kinases); type: biochemical
How it was run: as §1

HIPK1 = HIPK1 (Homo sapiens, UniProt Q86Z02); experiment: Kinase panel (140 human kinases); type: biochemical
How it was run: as §1

BRSK2 = biological target: T1, BRSK2 (Homo sapiens, UniProt Q8IWQ3); experiment: Kinase panel (140 human kinases); type: biochemical
T1 sequence (Q8IWQ3 1-736): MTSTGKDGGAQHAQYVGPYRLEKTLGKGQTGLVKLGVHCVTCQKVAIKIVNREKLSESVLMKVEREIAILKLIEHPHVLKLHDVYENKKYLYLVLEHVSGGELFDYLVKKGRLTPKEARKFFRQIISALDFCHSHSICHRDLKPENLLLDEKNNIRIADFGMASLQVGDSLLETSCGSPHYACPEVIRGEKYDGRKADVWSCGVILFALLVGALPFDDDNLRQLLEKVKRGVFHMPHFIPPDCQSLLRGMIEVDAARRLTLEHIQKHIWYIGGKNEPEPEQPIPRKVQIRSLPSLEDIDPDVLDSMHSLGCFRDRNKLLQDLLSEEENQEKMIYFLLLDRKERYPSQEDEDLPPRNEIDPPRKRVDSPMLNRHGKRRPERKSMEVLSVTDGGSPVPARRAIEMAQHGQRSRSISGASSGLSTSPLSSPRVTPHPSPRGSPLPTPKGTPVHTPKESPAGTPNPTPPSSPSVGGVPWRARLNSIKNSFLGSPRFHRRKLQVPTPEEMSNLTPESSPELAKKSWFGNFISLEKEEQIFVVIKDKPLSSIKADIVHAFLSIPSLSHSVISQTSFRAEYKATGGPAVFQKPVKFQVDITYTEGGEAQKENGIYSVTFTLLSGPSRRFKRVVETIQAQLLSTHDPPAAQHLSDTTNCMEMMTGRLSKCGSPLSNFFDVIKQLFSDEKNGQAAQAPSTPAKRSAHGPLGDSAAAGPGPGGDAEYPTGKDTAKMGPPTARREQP
How it was run: as §1

TGFBR1 = TGFBR1 (Homo sapiens, UniProt P36897); experiment: Kinase panel (140 human kinases); type: biochemical
How it was run: as §1

IRR = IRR (Homo sapiens, UniProt P14616); experiment: Kinase panel (140 human kinases); type: biochemical
How it was run: as §1

NEK2a = NEK2a (Homo sapiens, UniProt P51955); experiment: Kinase panel (140 human kinases); type: biochemical
How it was run: as §1

ASK1 = ASK1 (Homo sapiens, UniProt Q99683); experiment: Kinase panel (140 human kinases); type: biochemical
How it was run: as §1

PDK1 = PDK1 (Homo sapiens, UniProt O15530); experiment: Kinase panel (140 human kinases); type: biochemical
How it was run: as §1

TrkA = TrkA (Homo sapiens, UniProt P04629); experiment: Kinase panel (140 human kinases); type: biochemical
How it was run: as §1

SIK2 = SIK2 (Homo sapiens, UniProt Q9H0K1); experiment: Kinase panel (140 human kinases); type: biochemical
How it was run: as §1

MAPKAP-K3 = MAPKAP-K3 (Homo sapiens, UniProt Q16644); experiment: Kinase panel (140 human kinases); type: biochemical
How it was run: as §1

ERK5 = ERK5 (Homo sapiens, UniProt Q13164); experiment: Kinase panel (140 human kinases); type: biochemical
How it was run: as §1

SmMLCK = SmMLCK (Homo sapiens, UniProt Q15746); experiment: Kinase panel (140 human kinases); type: biochemical
How it was run: as §1

Chain of IR (P06213 28-1382): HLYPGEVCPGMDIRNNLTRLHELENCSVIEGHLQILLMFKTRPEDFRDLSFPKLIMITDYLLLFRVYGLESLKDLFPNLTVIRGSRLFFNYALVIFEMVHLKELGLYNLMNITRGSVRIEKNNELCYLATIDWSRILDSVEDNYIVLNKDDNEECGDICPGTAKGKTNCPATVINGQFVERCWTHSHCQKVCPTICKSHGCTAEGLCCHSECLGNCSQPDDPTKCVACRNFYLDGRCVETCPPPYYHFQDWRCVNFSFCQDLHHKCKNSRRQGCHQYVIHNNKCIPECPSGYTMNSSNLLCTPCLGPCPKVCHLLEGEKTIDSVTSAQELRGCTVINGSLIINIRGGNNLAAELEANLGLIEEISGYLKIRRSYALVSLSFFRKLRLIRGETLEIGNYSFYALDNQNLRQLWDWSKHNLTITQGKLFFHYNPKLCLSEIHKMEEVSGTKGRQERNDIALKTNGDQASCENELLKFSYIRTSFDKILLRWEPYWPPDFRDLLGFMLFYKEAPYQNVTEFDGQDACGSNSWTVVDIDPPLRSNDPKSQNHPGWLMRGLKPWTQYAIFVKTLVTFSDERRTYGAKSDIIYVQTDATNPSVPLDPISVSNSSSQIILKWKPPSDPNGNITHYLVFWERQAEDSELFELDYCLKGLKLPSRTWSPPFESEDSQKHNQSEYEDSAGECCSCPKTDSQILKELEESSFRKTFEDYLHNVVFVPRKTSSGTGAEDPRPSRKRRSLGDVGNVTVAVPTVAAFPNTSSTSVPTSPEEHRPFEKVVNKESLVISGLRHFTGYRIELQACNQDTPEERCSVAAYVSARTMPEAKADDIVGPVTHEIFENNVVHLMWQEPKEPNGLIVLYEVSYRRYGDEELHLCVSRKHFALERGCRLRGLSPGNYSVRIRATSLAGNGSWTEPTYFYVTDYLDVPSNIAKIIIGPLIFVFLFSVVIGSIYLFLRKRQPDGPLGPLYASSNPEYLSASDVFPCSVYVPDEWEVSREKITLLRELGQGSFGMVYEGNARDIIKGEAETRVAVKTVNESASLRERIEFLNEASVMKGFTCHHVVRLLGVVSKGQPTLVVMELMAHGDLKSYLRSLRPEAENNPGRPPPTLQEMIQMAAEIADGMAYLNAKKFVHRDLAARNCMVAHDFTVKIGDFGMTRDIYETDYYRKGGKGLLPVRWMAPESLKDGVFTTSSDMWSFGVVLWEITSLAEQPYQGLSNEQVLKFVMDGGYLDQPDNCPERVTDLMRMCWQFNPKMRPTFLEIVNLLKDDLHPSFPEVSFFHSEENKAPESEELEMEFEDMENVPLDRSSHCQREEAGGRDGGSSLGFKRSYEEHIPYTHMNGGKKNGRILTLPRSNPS
Chain of CK1γ2 (P78368 whole entry): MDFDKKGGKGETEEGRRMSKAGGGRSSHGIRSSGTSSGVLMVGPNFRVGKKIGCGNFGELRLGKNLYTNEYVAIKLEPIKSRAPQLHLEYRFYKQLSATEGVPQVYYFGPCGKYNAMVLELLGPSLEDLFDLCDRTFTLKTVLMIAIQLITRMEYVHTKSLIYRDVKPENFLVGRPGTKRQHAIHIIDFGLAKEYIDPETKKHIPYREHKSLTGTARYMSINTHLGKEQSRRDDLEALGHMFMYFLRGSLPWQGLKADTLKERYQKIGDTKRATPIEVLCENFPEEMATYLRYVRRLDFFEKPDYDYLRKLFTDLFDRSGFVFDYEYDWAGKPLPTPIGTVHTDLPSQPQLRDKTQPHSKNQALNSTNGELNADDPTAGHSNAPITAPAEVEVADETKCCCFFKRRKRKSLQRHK
Chain of SmMLCK (Q15746 923-1914): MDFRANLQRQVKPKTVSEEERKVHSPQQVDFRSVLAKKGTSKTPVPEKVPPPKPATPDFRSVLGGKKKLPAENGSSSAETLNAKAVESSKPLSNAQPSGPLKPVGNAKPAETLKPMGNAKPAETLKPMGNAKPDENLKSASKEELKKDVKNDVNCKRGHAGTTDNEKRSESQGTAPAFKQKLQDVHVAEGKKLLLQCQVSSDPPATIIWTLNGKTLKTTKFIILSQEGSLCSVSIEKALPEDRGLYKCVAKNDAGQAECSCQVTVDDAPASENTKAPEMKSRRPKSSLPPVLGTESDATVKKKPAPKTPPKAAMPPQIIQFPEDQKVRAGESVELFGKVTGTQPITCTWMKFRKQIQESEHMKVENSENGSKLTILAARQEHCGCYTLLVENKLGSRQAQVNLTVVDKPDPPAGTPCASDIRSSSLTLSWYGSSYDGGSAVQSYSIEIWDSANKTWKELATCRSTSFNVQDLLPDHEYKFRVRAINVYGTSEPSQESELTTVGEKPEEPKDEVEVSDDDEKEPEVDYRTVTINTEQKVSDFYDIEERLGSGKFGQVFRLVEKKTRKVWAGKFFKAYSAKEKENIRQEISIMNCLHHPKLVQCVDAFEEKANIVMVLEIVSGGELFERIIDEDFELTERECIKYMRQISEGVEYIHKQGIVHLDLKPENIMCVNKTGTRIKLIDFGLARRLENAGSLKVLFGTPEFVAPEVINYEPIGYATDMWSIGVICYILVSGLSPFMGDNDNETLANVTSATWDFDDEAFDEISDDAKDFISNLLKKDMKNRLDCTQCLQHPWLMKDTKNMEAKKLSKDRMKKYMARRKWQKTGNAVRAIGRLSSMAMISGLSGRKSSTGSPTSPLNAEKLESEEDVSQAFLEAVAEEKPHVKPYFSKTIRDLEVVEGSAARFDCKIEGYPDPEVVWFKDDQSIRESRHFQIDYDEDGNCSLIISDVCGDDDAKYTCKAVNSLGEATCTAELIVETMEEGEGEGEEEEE
Chain of TGFBR1 (P36897 34-503): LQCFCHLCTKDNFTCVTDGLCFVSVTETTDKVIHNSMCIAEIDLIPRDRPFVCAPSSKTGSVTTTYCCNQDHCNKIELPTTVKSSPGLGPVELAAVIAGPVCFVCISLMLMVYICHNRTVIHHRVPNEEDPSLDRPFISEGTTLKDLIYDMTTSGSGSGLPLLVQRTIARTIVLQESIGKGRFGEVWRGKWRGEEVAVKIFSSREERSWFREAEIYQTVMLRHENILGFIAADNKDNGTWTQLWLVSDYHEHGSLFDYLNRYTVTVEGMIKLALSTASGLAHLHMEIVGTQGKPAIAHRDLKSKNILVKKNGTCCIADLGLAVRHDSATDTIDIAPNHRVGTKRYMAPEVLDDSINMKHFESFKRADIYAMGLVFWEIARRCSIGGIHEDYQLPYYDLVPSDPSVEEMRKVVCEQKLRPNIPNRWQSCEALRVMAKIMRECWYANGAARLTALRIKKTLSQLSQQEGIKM
Chain of HIPK1 (Q86Z02 whole entry): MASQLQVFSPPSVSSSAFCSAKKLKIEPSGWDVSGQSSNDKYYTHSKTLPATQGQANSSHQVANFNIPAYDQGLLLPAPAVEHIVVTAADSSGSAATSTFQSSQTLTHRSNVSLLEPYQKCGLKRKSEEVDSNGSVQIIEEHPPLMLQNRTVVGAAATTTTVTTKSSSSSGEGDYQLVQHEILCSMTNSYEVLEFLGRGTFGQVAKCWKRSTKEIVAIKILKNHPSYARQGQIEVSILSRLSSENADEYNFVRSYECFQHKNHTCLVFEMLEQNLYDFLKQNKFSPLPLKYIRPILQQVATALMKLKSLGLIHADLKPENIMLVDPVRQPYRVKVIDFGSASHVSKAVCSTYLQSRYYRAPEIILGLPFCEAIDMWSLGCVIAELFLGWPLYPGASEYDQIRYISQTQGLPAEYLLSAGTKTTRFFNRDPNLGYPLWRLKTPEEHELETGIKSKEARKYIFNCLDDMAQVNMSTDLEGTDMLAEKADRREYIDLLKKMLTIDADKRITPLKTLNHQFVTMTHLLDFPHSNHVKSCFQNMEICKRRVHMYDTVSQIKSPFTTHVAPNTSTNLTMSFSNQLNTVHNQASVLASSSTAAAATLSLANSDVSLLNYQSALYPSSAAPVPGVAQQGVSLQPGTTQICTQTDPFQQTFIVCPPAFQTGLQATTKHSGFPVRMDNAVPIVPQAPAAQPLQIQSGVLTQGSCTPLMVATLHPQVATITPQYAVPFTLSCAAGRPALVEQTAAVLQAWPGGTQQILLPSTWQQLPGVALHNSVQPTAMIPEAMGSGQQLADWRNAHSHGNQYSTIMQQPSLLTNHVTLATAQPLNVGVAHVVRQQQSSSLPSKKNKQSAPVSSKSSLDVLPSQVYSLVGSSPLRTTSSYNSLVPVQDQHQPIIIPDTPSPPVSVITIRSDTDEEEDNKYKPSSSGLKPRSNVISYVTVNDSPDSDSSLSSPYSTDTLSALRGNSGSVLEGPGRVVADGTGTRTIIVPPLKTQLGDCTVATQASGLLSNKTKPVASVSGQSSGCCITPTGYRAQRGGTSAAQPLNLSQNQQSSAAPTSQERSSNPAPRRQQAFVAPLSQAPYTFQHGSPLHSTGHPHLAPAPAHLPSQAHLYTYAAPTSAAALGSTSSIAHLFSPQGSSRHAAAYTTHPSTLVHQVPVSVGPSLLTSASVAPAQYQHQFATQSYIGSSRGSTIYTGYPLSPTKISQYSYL
Chain of CK2 (P68400 whole entry): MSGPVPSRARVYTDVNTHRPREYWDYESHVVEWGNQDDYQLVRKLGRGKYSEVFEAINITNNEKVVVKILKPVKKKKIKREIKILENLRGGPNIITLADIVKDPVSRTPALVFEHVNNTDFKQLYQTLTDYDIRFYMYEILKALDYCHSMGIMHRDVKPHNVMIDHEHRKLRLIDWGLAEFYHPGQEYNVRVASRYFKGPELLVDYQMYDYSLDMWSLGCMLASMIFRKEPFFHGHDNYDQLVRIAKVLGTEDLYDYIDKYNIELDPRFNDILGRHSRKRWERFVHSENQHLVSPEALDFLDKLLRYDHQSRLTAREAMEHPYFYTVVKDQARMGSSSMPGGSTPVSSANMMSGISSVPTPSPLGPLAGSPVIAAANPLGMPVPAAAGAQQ

| SMILES | AMPK phosphorylation (pThr172) [1] | remaining activity at 0.1 µM (EPH-B3) [%] | remaining activity at 0.1 µM (CK2) [%] | remaining activity at 0.1 µM (PRK2) [%] | remaining activity at 0.1 µM (TIE2) [%] | remaining activity at 0.1 µM (CK1γ2) [%] | remaining activity at 0.1 µM (IR) [%] | remaining activity at 0.1 µM (HIPK1) [%] | remaining activity at 0.1 µM (BRSK2) [%] | remaining activity at 0.1 µM (TGFBR1) [%] | remaining activity at 0.1 µM (IRR) [%] | remaining activity at 0.1 µM (NEK2a) [%] | remaining activity at 0.1 µM (ASK1) [%] | remaining activity at 0.1 µM (PDK1) [%] | remaining activity at 0.1 µM (TrkA) [%] | remaining activity at 0.1 µM (SIK2) [%] | remaining activity at 0.1 µM (MAPKAP-K3) [%] | remaining activity at 0.1 µM (ERK5) [%] | remaining activity at 0.1 µM (SmMLCK) [%] | further results |
| --- | --- | --- | --- | --- | --- | --- | --- | --- | --- | --- | --- | --- | --- | --- | --- | --- | --- | --- | --- | --- |
| CCc1ccccc1C(=O)Nc1n[nH]c2c(C)c(F)c(C3C(C#N)=C(C)N(C)C(C)=C3C#N)cc12 [BAY-3827, N-[5-(3,5-dicyano-1,2,6-trimethyl-4H-pyridin-4-yl)-6-fluoro-7-methyl-1H-indazol-3-yl]-2-ethylbenzamide] | dose-dependently increased | 84 | 85 | 88 | 69 | 95 | 102 | 94 | 82 | 86 | 89 | 122 | 95 | 83 | 87 | 107 | 101 | 80 | 76 | pEC50 ([1]; + MK-8722 (10 μM)): 6.24; pEC50 ([1]; without MK-8722): 5.71; remaining activity at 1 µM (IR; 1 μM, INSR, cross-referenced with screen data of ref 37, read-out: activity remaining after treatment): ≥ 99%; remaining activity at 1 µM (BRSK2; 1 μM, cross-referenced with screen data of ref 37, read-out: activity remaining after treatment): ≤ 50% |
| CC1=C(C#N)C(c2ccc3c(c2)c(NC(=O)c2ccccc2C)nn3C)C(C#N)=C(C)N1 [BAY-974, N-[5-(3,5-dicyano-2,6-dimethyl-1,4-dihydropyridin-4-yl)-1-methylindazol-3-yl]-2-methylbenzamide] | not | 119 | 79 | 83 | 103 | 112 | 81 | 91 | 112 | 113 | 88 | 121 | 83 | 85 | 97 | 88 | 81 | 70 | 80 |  |
